Patent US8841456B2, “1,5-naphthyridine derivative or salt thereof” (FUJIFILM Corporation, priority 2011, dated 2014)

Legend:
[1] = biological target: T1, glutathione S-transferase (GST)-fusion human ERK2 protein (Homo sapiens, UniProt P28482); assay: ERK2 enzyme assay (LabChip mobility shift); assay type: biochemical; details: IC50 class; 2 nM ERK2, 4.25 μM FL-Peptide 8, 43 μM ATP; read-out: ERK2 Inhibitory Activity
T1 construct: purchased Carna Biosciences, Inc; host or cells: E. coli expression system
T1 sequence (P28482 whole entry, the tested form may be a part): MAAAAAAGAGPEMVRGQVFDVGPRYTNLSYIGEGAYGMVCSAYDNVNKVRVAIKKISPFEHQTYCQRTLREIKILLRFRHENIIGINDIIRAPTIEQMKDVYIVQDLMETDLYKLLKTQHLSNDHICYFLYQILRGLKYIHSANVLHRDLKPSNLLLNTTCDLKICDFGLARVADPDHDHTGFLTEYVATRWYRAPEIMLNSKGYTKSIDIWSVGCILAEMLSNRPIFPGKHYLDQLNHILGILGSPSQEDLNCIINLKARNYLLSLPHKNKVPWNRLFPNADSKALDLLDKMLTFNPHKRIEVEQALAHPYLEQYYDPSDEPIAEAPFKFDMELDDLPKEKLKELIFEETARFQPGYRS
Experimental: Evaluation of the ERK2 inhibitory activity of the compound of the present invention was carried out according to the method as described below.
For the ERK2 enzyme assay, a glutathione S-transferase (GST)-fusion human ERK2 protein (Carna Biosciences, Inc.) produced using an E. coli expression system was used.
12 μL of the reaction solution (2 nM ERK2, 100 mM Hepes, 10 mM MgCl2, 1.5 mM DTT, 0.003% Brij35, pH 7.5) including the ERK2 protein and a test compound at a predetermined concentration was incubatedat room temperature for 15 minutes. Thereafter, 3 μL of a mixed solution of FL-Peptide 8 (5-FAM-IPTSPITTTYFFFKKK-COOH) (Caliper Lifescience) which was a substrate and ATP(SIGMA-ALDLICH) were added thereto to a final concentration of 4.25 μM and 43 μM, respectively. The reaction solution was further incubated at 25° C. for 120 minutes to carry out an enzyme reaction.
The enzyme reaction was stopped by adding 27 μL of a reaction-stopping solution (100 mM HEPES, 11.2 mM EDTA, 5.6% Brij35, pH 7.5) including a 0.5% Coating reagent 8 (PerkinElmer, Inc.) after the reaction. Thereafter, non-phosphorylated peptides and phosphorylated peptides were separated using LabChip Ez Reader (Caliper LifeScience, Inc.) to quantify the proportion of phosphorylated peptides.
(§1) The inhibitory activity of the compounds was evaluated using an IC50 (50% inhibitory concentration). The IC50 was calculated using XLfit (IDBS).

[2] = biological target: T2, human PI3Kα protein (Homo sapiens, UniProt P42336); assay: PI3Kα enzyme assay (ADP-Glo kinase assay); assay type: biochemical; details: IC50 class; 3 nM PI3Kα, 50 μM PIP2, 100 μM ATP; read-out: PI3Kα Inhibitory Activity
T2 construct: purchased Carna Biosciences, Inc; host or cells: Baculovirus expression system
T2 sequence (P42336 whole entry): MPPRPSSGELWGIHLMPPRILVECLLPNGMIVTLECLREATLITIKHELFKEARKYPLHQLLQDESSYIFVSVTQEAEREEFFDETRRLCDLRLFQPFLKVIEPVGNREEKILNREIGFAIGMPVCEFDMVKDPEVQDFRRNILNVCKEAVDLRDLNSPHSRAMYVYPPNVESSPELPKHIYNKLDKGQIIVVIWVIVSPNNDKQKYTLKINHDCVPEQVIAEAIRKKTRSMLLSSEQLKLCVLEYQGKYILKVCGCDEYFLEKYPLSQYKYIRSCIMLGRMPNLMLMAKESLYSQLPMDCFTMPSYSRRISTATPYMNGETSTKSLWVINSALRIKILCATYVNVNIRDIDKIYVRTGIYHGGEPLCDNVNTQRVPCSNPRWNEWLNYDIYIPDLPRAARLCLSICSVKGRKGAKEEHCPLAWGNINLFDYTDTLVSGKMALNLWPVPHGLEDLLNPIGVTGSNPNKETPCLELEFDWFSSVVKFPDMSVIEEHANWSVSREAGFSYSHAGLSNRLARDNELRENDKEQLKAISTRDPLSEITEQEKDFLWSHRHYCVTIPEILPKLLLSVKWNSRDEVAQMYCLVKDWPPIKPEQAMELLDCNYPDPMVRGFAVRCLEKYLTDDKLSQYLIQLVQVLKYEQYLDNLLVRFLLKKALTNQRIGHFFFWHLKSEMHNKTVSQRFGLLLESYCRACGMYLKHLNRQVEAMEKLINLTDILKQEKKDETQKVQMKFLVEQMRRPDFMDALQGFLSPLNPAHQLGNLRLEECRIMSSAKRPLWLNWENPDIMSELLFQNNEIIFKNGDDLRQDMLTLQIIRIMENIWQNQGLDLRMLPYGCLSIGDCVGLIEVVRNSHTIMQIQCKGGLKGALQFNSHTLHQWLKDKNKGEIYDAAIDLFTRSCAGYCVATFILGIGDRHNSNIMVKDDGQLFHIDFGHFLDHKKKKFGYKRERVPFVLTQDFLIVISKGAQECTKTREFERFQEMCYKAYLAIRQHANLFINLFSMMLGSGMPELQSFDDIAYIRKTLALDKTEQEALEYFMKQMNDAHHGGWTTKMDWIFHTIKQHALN
T2 sequence (P27986 whole entry partner): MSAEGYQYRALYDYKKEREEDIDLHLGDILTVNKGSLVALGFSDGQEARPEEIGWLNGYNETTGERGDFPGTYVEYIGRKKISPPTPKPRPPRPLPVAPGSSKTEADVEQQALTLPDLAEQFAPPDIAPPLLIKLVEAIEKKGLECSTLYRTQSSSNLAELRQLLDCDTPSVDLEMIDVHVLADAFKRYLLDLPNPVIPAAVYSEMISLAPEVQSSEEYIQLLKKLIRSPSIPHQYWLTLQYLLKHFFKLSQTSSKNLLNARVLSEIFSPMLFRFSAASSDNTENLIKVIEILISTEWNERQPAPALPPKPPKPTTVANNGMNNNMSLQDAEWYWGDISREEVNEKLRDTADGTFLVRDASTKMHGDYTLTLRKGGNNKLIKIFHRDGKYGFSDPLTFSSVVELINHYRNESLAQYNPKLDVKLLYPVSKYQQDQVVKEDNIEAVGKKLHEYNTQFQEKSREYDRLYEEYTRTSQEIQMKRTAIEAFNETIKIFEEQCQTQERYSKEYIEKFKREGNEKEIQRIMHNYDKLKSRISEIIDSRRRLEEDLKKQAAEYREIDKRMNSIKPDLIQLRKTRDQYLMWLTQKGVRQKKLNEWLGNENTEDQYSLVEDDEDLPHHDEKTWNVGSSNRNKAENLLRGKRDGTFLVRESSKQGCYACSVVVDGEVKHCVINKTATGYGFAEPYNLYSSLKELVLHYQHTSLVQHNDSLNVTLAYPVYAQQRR
Experimental: Evaluation of the PI3Kα inhibitory activity of the compound of the present invention was carried out according to the method as described below.
For the PI3Kα enzyme assay, biotinylated product of a human PI3Kα protein produced using a Baculovirus expression system (Carna Biosciences, Inc.) was used. Further, for the detection of the enzyme activity, an ADP-Glo kinase assay (PROMEGA Corporation) was used.
10 μL of a reaction solution (3 nM PI3Kα, 40 mM Tris-HCl, 20 mM MgCl2, 0.1% BSA, pH 7.5) including the human PI3Kα protein and a test compound at a predetermined concentration was incubated at room temperature for 15 minutes. Thereafter, 5 μL of a mixed solution of L-α-Phosphatidylinositol 4,5-diphosphate (PIP2) (SIGMA-ALDLICH) which was a substrate and ATP(SIGMA-ALDLICH) was added thereto to a final concentration of 50 μM and 100 μM, respectively, and the reaction solution was further incubated at 25° C. for 60 minutes to carry out an enzyme reaction.
After the reaction, 15 μL of an ADP-Glo reagent (PROMEGA Corporation) was added and the resulting liquid was incubated at room temperature for 60 minutes, whereby the enzyme reaction was stopped. Thereafter, after further adding 30 μL of a Kinase Detection Reagent (PROMEGA Corporation) and standing the resulting solution at room temperature for 40 minutes, ADP produced by the enzyme reaction was quantified by luminescence intensity.
For the measurement of luminescence intensity, EnVision (PerkinElmer, Inc.) was used.
as §1

| SMILES | IC50 [1] | IC50 [2] |
| --- | --- | --- |
| CC(C)[C@@H](C)NC(=O)Nc1ccc2ncc(-c3cn[nH]c3)cc2n1 [Compound 0082] | < 100 nM | < 100 nM |
| CC(C)[C@H](C)NC(=O)Nc1ccc2ncc(-c3cn[nH]c3)cc2n1 [Compound 0083] | < 100 nM | < 100 nM |
| O=C(Nc1ccc2ncc(-c3cn[nH]c3)cc2n1)NC1CCC1 [Compound 0084] | < 100 nM | < 100 nM |
| C[C@@H]1CN(c2cnc3ccc(NC(=O)NC4CCCC4)nc3c2)C[C@H](C)O1 [Compound 0085] | 100 to 1000 nM | < 100 nM |
| O=C(Nc1ccc2ncc(-c3cn[nH]c3)cc2n1)NC1Cc2ccccc2C1 [Compound 0086] | < 100 nM | < 100 nM |
| CC(C)CC(C)NC(=O)Nc1ccc2ncc(-c3cn[nH]c3)cc2n1 (stereo not drawn) [Compound 0087] | < 100 nM | < 100 nM |
| CC(CCc1ccccc1)NC(=O)Nc1ccc2ncc(-c3cn[nH]c3)cc2n1 (stereo not drawn) [Compound 0088] | < 100 nM | < 100 nM |
| O=C(NCCc1ccccc1)Nc1ccc2ncc(-c3cn[nH]c3)cc2n1 [Compound 0089] | < 100 nM | 100 to 1000 nM |
| CC1CN(c2cnc3ccc(NC(=O)NC4CCCC4)nc3c2)CCO1 (stereo not drawn) [Compound 0090] | 100 to 1000 nM | < 100 nM |
| O=C(Nc1ccc2ncc(-c3cn[nH]c3)cc2n1)NC1CC[C@H](O)C1 (stereo partly drawn) [Compound 0091] | < 100 nM | < 100 nM |
| O=C(Nc1ccc2ncc(-c3cn[nH]c3)cc2n1)NC1CCC(Oc2ccccc2)C1 (stereo not drawn) [Compound 0092] | < 100 nM | < 100 nM |
| CCCCNC(=O)Nc1ccc2ncc(-c3cn[nH]c3)cc2n1 [Compound 0093] | < 100 nM | < 100 nM |
| CCCCCNC(=O)Nc1ccc2ncc(-c3cn[nH]c3)cc2n1 [Compound 0094] | < 100 nM | < 100 nM |
| O=C(NCCCc1ccccc1)Nc1ccc2ncc(-c3cn[nH]c3)cc2n1 [Compound 0095] | < 100 nM | 100 to 1000 nM |
| O=C(NCCCCCc1ccccc1)Nc1ccc2ncc(-c3cn[nH]c3)cc2n1 [Compound 0096] | < 100 nM | 100 to 1000 nM |
| O=C(NCCO)Nc1ccc2ncc(-c3cn[nH]c3)cc2n1 [Compound 0097] | 100 to 1000 nM | 1000 to 10000 nM |
| COCCNC(=O)Nc1ccc2ncc(-c3cn[nH]c3)cc2n1 [Compound 0098] | < 100 nM | 100 to 1000 nM |
| CC(C)OCCNC(=O)Nc1ccc2ncc(-c3cn[nH]c3)cc2n1 [Compound 0099] | < 100 nM | 100 to 1000 nM |
| COCCCNC(=O)Nc1ccc2ncc(-c3cn[nH]c3)cc2n1 [Compound 0100] | < 100 nM | 100 to 1000 nM |
| O=C(NCc1ccccn1)Nc1ccc2ncc(-c3cn[nH]c3)cc2n1 [Compound 0101] | < 100 nM | 1000 to 10000 nM |
| O=C(NCc1cccnc1)Nc1ccc2ncc(-c3cn[nH]c3)cc2n1 [Compound 0102] | < 100 nM | 1000 to 10000 nM |
| O=C(NCc1ccncc1)Nc1ccc2ncc(-c3cn[nH]c3)cc2n1 [Compound 0103] | 100 to 1000 nM | 100 to 1000 nM |
| O=C(NCCCOc1ccccc1)Nc1ccc2ncc(-c3cn[nH]c3)cc2n1 [Compound 0104] | < 100 nM | 100 to 1000 nM |
| CN(CCCNC(=O)Nc1ccc2ncc(-c3cn[nH]c3)cc2n1)c1ccccc1 [Compound 0105] | < 100 nM | 100 to 1000 nM |
| CN(C)CCCNC(=O)Nc1ccc2ncc(-c3cn[nH]c3)cc2n1 [Compound 0106] | 100 to 1000 nM | 1000 to 10000 nM |
| O=C(NCCOCc1ccccc1)Nc1ccc2ncc(-c3cn[nH]c3)cc2n1 [Compound 0107] | < 100 nM | 100 to 1000 nM |
| CN(CCNC(=O)Nc1ccc2ncc(-c3cn[nH]c3)cc2n1)Cc1ccccc1 [Compound 0108] | < 100 nM | 100 to 1000 nM |
